Literature values in patent US20180185454A1, “AGENT FOR PREVENTING ONSET OF IDIOPATHIC OSTEONECROSIS OF FEMORAL HEAD AND/OR SUPPRESSING PROGRESS OF SAME” (ASAHI KASEI PHARMA CORPORATION, priority 2015, published 2018).
Read-outs that look alike come from different tables or passages of the source.

Columns and labels:
ION = conditions: vs alendronate control; no statistical superiority between the two groups; dosage not disclosed
[1] = tested on: osteonecrosis of the jawbone; conditions: induced by bisphosphonates and denosumab

## CC[C@H](C)[C@H](NC(=O)[C@H](CCC(=O)O)NC(=O)[C@H](CO)NC(=O)[C@@H](NC(=O)[C@@H](N)CO)C(C)C)C(=O)N[C@@H](CCC(N)=O)C(=O)N[C@@H](CC(C)C)C(=O)N[C@@H](CCSC)C(=O)N[C@@H](Cc1cnc[nH]1)C(=O)N[C@@H](CC(N)=O)C(=O)N[C@@H](CC(C)C)C(=O)NCC(=O)N[C@@H](CCCCN)C(=O)N[C@@H](Cc1cnc[nH]1)C(=O)N[C@@H](CC(C)C)C(=O)N[C@@H](CC(N)=O)C(=O)N[C@@H](CO)C(=O)N[C@@H](CCSC)C(=O)N[C@@H](CCC(=O)O)C(=O)N[C@@H](CCCN=C(N)N)C(=O)N[C@H](C(=O)N[C@@H](CCC(=O)O)C(=O)N[C@@H](Cc1c[nH]c2ccccc12)C(=O)N[C@@H](CC(C)C)C(=O)N[C@@H](CCCN=C(N)N)C(=O)N[C@@H](CCCCN)C(=O)N[C@@H](CCCCN)C(=O)N[C@@H](CC(C)C)C(=O)N[C@@H](CCC(N)=O)C(=O)N[C@@H](CC(=O)O)C(=O)N[C@H](C(=O)N[C@@H](Cc1cnc[nH]1)C(=O)N[C@@H](CC(N)=O)C(=O)N[C@@H](Cc1ccccc1)C(=O)O)C(C)C)C(C)C [teriparatide]
ION
  femoral head collapse progress (difference in collapse values before and after administration, simple x-ray frontal views): tended to suppress femoral head collapse progress in comparison to alendronate
Bone formation markers; 20 μg daily formulation
  effect on bone formation markers: markedly increases
Bone formation markers; 56.5 μg once-a-week formulation
  effect on bone formation markers: only slightly
[1]
  effect against osteonecrosis of the jawbone: have an effect
